Laboratory results: ChEMBL document CHEMBL1201862, “PubChem BioAssay data set” (2004)
“And” between values parts separate entries of the source, which are not always exact repeats. Equal entries are not always repeated.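 Test compounds were applied to cells in 96-well plates for 48 hours at 5 doses. Here, GI50 denotes the concentration required for 50% inhibition of growth.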 The source made the active and inactive calls. No stated cut-off is given here; in the data, active = GI50 up to about 1.1 µM and inactive = higher.

Columns and labels:
Experiment in all cases: NCI-60 cell line screen, 48 h
[1] = tested on: HCT-15
[2] = tested on: HCT-116
[3] = tested on: Malme-3M
[4] = tested on: 786-0
[5] = tested on: HT-29
[6] = tested on: SK-MEL-5
[7] = tested on: SF-539
[8] = tested on: SNB-75
[9] = tested on: NCI-H460
[10] = tested on: NCI/ADR-RES
[11] = tested on: UACC-62
[12] = tested on: HOP-92
[13] = tested on: UACC-257
[14] = tested on: LOX IMVI
[15] = tested on: SNB-19
[16] = tested on: EKVX
[17] = tested on: HCC 2998
[18] = tested on: MDA-MB-231
[19] = tested on: OVCAR-3
[20] = tested on: MCF7

| SMILES | GI50 [1] | GI50 [2] | GI50 [3] | GI50 [4] | GI50 [5] | GI50 [6] | GI50 [7] | GI50 [8] | GI50 [9] | GI50 [10] | GI50 [11] | GI50 [12] | GI50 [13] | GI50 [14] | GI50 [15] | GI50 [16] | GI50 [17] | GI50 [18] | GI50 [19] | GI50 [20] |
| --- | --- | --- | --- | --- | --- | --- | --- | --- | --- | --- | --- | --- | --- | --- | --- | --- | --- | --- | --- | --- |
| O=C1/C(=C/c2ccc(O)c(O)c2)CCC/C1=C\c1ccc(O)c(O)c1 | 4.13 µM | 2.37 µM (inactive) | 2.46 µM (inactive) | 3.31 µM (inactive) | 8.09 µM (inactive) | 1.67 µM (inactive) | 2.41 µM (inactive) | 3.4 µM (inactive) | 3.45 µM (inactive) | 4.13 µM (inactive) | 2.86 µM (inactive) | 2.98 µM (inactive) | 4.51 µM (inactive) | 2.11 µM (inactive) | 7.08 µM (inactive) | 14.3 µM (inactive) | 4.12 µM (inactive) | 5.14 µM (inactive) | 3.06 µM (inactive) | 5.16 µM (inactive) |
| C=CCn1c(=O)c(C)cn(/C(=C/C(=O)OCC)C(=O)OCC)c1=O | 2.97 µM | 9.62 µM (inactive) | 13.8 µM (inactive) | 5.87 µM (inactive) | 12.9 µM (inactive) | 18 µM (inactive) | 23.2 µM (inactive) | 11.1 µM (inactive) | 25.4 µM (inactive) | 21.1 µM (inactive) | 16.5 µM (inactive) | 3.52 µM (inactive) | 20.5 µM (inactive) | 6.28 µM (inactive) | 46.9 µM (inactive) | 14 µM (inactive) | 17.4 µM (inactive) | 15.5 µM (inactive) | 9.66 µM (inactive) | 4.34 µM (inactive) |
| O=C(O)C1(CC(CCCN2CCCCC2)c2ccccc2)CCCC1 (stereo unspecified) | > 100 µM | > 100 µM (inactive) | > 100 µM (inactive) | > 100 µM (inactive) | > 100 µM (inactive) | > 100 µM (inactive) | > 100 µM (inactive) | > 100 µM (inactive) | > 100 µM (inactive) | > 100 µM (inactive) | > 100 µM (inactive) | > 100 µM (inactive) |  | > 100 µM (inactive) | > 100 µM (inactive) | > 100 µM (inactive) | > 100 µM (inactive) | > 100 µM (inactive) | 41.8 µM (inactive) | > 100 µM (inactive) |
| N=C(N)C1CN(CCc2c[nH]c3ccccc23)C(=O)NC1=O (stereo unspecified) | > 100 µM | > 100 µM (inactive) | > 100 µM (inactive) | > 100 µM (inactive) | > 100 µM (inactive) | > 100 µM (inactive) |  | > 100 µM (inactive) | > 100 µM (inactive) | > 100 µM (inactive) | > 100 µM (inactive) | > 100 µM (inactive) | > 100 µM (inactive) | > 100 µM (inactive) | > 100 µM (inactive) | > 100 µM (inactive) | > 100 µM (inactive) | > 100 µM (inactive) | > 100 µM (inactive) | > 100 µM (inactive) |
| O=C1OCC(O)=C1C(c1ccc(Cl)cc1)c1cc2c(cc1O)OCO2 (stereo unspecified) | > 100 µM | > 100 µM (inactive) | > 100 µM (inactive) | > 100 µM (inactive) | > 100 µM (inactive) | > 100 µM (inactive) | > 100 µM (inactive) | > 100 µM (inactive) | > 100 µM (inactive) | > 100 µM (inactive) | > 100 µM (inactive) | > 100 µM (inactive) |  | > 100 µM (inactive) | > 100 µM (inactive) | > 100 µM (inactive) | > 100 µM (inactive) | > 100 µM (inactive) | > 100 µM (inactive) | > 100 µM (inactive) |
| C[C@]12CC[C@H]3[C@@H](CCC4=C[C@@H](N5CCCC5)CC[C@@]43C)[C@@H]1C/C(=C\c1ccncc1)[C@@H]2O | 8.43 µM | 7.91 µM (inactive) | 13.6 µM (inactive) | 2.86 µM (inactive) | 0.631 µM (active) | 12 µM (inactive) | 9.35 µM (inactive) | 14.3 µM (inactive) | 11.6 µM (inactive) | 17.6 µM (inactive) | 15.8 µM (inactive) | 15.9 µM (inactive) | 6.19 µM (inactive) | 8.57 µM (inactive) | 14.5 µM (inactive) | 15.7 µM (inactive) | 5.07 µM (inactive) | 13.9 µM (inactive) | 16.4 µM (inactive) | 12.8 µM (inactive) |
| O=[N+]([O-])c1cc(C2(N3CCCCC3)CCCCC2)sc1Br | 5.02 µM | 11.7 µM (inactive) | 3.44 µM (inactive) | 3.94 µM (inactive) | 3.87 µM (inactive) | 5.04 µM (inactive) | 2.52 µM (inactive) |  | 14.4 µM (inactive) | 3.09 µM (inactive) | 11.3 µM (inactive) | 8.81 µM (inactive) | 2.04 µM (inactive) | 2.82 µM (inactive) | 14.1 µM (inactive) | 9.16 µM (inactive) | 1.74 µM (inactive) | 11 µM (inactive) | 2.72 µM (inactive) | 2.83 µM (inactive) |
| Cc1c(C)c2c(c(N)c1C#N)C(=O)N(OS(=O)(=O)c1ccccc1)C2=O | 20.9 µM | 4.42 µM (inactive) | 16.1 µM (inactive) | 16.4 µM (inactive) |  | 44.9 µM (inactive) | 16.6 µM (inactive) | 32.5 µM (inactive) | 37.5 µM (inactive) | 22.6 µM (inactive) | 23.9 µM (inactive) | 17 µM (inactive) | 24.4 µM (inactive) | 26.2 µM (inactive) | > 100 µM (inactive) | 18.9 µM (inactive) | 38.7 µM (inactive) | 52.8 µM (inactive) | 22.2 µM (inactive) | 38 µM (inactive) |
| CC1OC(OC2C(OC(=O)[C@]34CCC(C)(C)C[C@H]3C3=CC[C@@H]5[C@@]6(C)CC[C@H](OC7OC(C(=O)O)C(O)C(O)C7O)C(C)(C)[C@@H]6CC[C@@]5(C)[C@]3(C)CC4)OCC(O)C2O)C(O)C(O)C1OC1OCC(O)C(O)C1O (stereo partly specified) | > 100 µM | 39.9 µM (inactive) and 45.9 µM (inactive) | 34.7 µM (inactive) and 28.3 µM (inactive) | 49.3 µM (inactive) and 65.5 µM (inactive) | 15.4 µM (inactive) and 28.2 µM (inactive) |  |  |  | > 100 µM (inactive) | 93.5 µM (inactive) | 39.4 µM (inactive) and 28 µM (inactive) | 30.6 µM (inactive) and 20.5 µM (inactive) | 45 µM (inactive) and 29.8 µM (inactive) | 66.8 µM (inactive) |  | 22.3 µM (inactive) and 30.1 µM (inactive) | 18.7 µM (inactive) and 19.2 µM (inactive) | 11 µM (inactive) and 21.5 µM (inactive) | > 100 µM (inactive) | 50.1 µM (inactive) and 41.5 µM (inactive) |
| C#Cc1nc(N)c2ncn(C3OC(COS(N)(=O)=O)C(O)C3O)c2n1 (stereo unspecified) | < 0.0214 µM | 0.0184 µM (active) |  | 0.0367 µM (active) | 0.0233 µM (active) | 0.0361 µM (active) | 0.0362 µM (active) | 0.02 µM (active) | < 0.0193 µM (active) | < 0.0184 µM (active) | 0.0537 µM (active) | < 0.01 µM (active) | < 0.0318 µM (active) | < 0.0176 µM (active) | 0.0208 µM (active) | 0.262 µM (active) | < 0.01 µM (active) | < 0.0185 µM (active) | < 0.0194 µM (active) | 0.0124 µM (active) |
| C=CCn1c(N)c(C#N)c(C#N)c1CCC | > 100 µM |  | > 100 µM (inactive) | > 100 µM (inactive) | > 100 µM (inactive) | > 100 µM (inactive) | > 100 µM (inactive) | 25 µM (inactive) |  | > 100 µM (inactive) | > 100 µM (inactive) | > 100 µM (inactive) | > 100 µM (inactive) | > 100 µM (inactive) | > 100 µM (inactive) | 42.7 µM (inactive) | > 100 µM (inactive) | > 100 µM (inactive) | 74.6 µM (inactive) | > 100 µM (inactive) |
| COc1ccc2c(c1)CC1C3(CCCCC23)CC[N+]1(C)C (stereo unspecified) | > 100 µM | > 100 µM (inactive) | > 100 µM (inactive) | > 100 µM (inactive) | > 100 µM (inactive) | > 100 µM (inactive) |  | 34.4 µM (inactive) | > 100 µM (inactive) | > 100 µM (inactive) | > 100 µM (inactive) | 87.5 µM (inactive) | > 100 µM (inactive) | > 100 µM (inactive) | 73.5 µM (inactive) | > 100 µM (inactive) | > 100 µM (inactive) | > 100 µM (inactive) | 75.5 µM (inactive) | > 100 µM (inactive) |
| O=C(O)c1cc(C(=O)C(=O)c2cc(C(=O)O)c(O)c3ccccc23)c2ccccc2c1O | > 100 µM | > 100 µM (inactive) | > 100 µM (inactive) | > 100 µM (inactive) | > 100 µM (inactive) | > 100 µM (inactive) | > 100 µM (inactive) | > 100 µM (inactive) | > 100 µM (inactive) | > 100 µM (inactive) | > 100 µM (inactive) | > 100 µM (inactive) | > 100 µM (inactive) | > 100 µM (inactive) | > 100 µM (inactive) | > 100 µM (inactive) | > 100 µM (inactive) | > 100 µM (inactive) | > 100 µM (inactive) | > 100 µM (inactive) |
| C[C@H]1C/C=C/[C@H]2[C@@H]3O[C@]3(C)[C@@H](C)[C@H]3[C@H](Cc4ccccc4)NC(=O)[C@]32OC(=O)O/C=C/[C@@](C)(O)C1=O [CYTOCHALASIN E] | 0.0834 µM |  | 0.0251 µM (active) | 0.114 µM (active) | 0.0194 µM (active) | 0.0211 µM (active) | 0.0169 µM (active) | 0.0102 µM (active) | 0.0161 µM (active) | 5.69 µM (inactive) | 0.1 µM (active) | 0.0239 µM (active) | 0.263 µM (active) | 0.0128 µM (active) | 0.0604 µM (active) | 0.075 µM (active) | 0.138 µM (active) | < 0.01 µM (active) | 0.0975 µM (active) | 0.0292 µM (active) |
